Experimental data from patent US20110136867A1, “Treatment of Synucleinopathies” (priority 2006, published 2011).
“Also recorded” adds a separate entry of the source.

Columns and labels:
Format in all cases: cell-based
α-synuclein [1] = assay: α-synuclein degradation assay in transfected COS-7 cells (quantitative Western blotting)
Source text: Plasmids: C220S cDNA was generated by PCR site-specific mutagenesis. For the PCR, the 5′ primer is uchforw SEQ ID NO: 1 ([…]), and 3′ primer is uchc220s SEQ ID NO:2 (CTAAGA […]). Wt UCH-L1 served as the template. The PCR fragment was inserted into pcDNA vector. For S18YC220S mutant, S18Y UCH-L1 served as the template in PCR. For the FLAG tagged UCH-L1, the 5′ primer is FLAGuchforw SEQ ID NO: 3 ([…] CGATGGAG), and the 3′ primer is uchrev SEQ ID NO: 4 ([…]). Wt UCH-L1 or C220S served as the template. PCR fragment was purified and inserted into pcDNA vector. For the FLAG tagged UCH-L3, the 5′ primer is L3HindIII SEQ ID NO: 5 (CTAAAGCTTATGGACTAC […]), the 3′primer is L3XhoISAA SEQ ID NO: 6 ([…]). […] After 24 hours of incubation, the cells were lysed with Tris buffer (50 mM Tris, 2% SDS, 0.1% NP-40), and subjected to SDS-PAGE, followed by quantitative Western blotting.
(§1) Western Blotting: Following transfer of SDS gels onto NC membrane, all membranes were blocked with 5% non-fat milk in TBST (50 mM Tris-HCl pH7.4, 150 mM NaCl, 0.1% Tween 20), and incubated with primary antibody overnight with 1% BSA in TBST, washed three times with TBST, and incubated with horseradish peroxidase-conjugated secondary antibody for 1 hour (Promega). Bound antibodies were detected using enhanced chemiluminascence (NEM). […]

[2] = system: SH-SY5Y cells overexpressing α-synuclein; assay: α-synuclein toxicity in SH-SY5Y cells infected by α-synuclein-expressing adenovirus (Trypan blue viable cell counting, MTT assay)
Experimental: Viral Infection: Viral infection and MTT assay in SH-SY5Y cells: The viruses were amplified and purified according to the published procedure. SH-SY5Y cells were grown on 100 mm petri-dishes and induced with 100 nM retinoic acid for 3-5 days before the virus infection with M.I.O at 75. Viruses were diluted with DPBS to desired M.I.O. After four hours of incubation, 10 ml growth medium was added. On the second day, cells were splitted into 96-well plates and treated with compounds for next 48 hours. The growth medium in each well was replaced with growth medium with 5 ug/ml MTT. Medium was removed after three hours incubation, and 200 ul isopropyl (0.04N HCl) was added into each well. The signal was read at 570 nm.
Viable cell counting: At stated time poins, SH-SY5Y cells were trypsinized with 100 ul trypsin-EDTA for 1 minute and neutralized with 400 ul growth medium. Cell suspension was made up by mixing 0.2 ml of cells in growth medium, 0.3 ml of HBSS and 0.5 ml of 0.4% Trypan Blue solution. Viable cell numbers were counted by standard cell counting chamber.
Since α-synuclein neurotoxicity is dose-dependent, it follows that accumulation of α-synuclein, caused by UCH-L1 farnesylation, should promote its toxicity. […] These cells express high endogenous levels of UCH-L1. […] The unit of y-axis is 10^5 /ml. (F) Cell viability was assessed by the amount of metabolic activity using MTT assay. […]

UCH-L1 [3] = assay: Total amount and turnover of UCH-L1 in SH-SY5Y cells (pulse-chase)
UCH-L1 [4] = assay: Membrane bound and cytosolic UCH-L1 in SH-SY5Y cells (2D electrophoresis, Western blotting); details: compared to DMSO
Experimental: 2D electrophoresis: For the isolation of total cellular protein, cultured SH-SY5Y cells maintained as described above were rinsed with ice-cold PBS. Cells were lysed in 1 ml dSDS buffer (50 mM Tris-HCl, pH 8.0 0.1% SDS) supplemented with protease inhibitor cocktail. Lysates were boiled for 3 min, and were treated with Dnase and Rnase as described. Lysates were precipitated with ice-cold acetone for at least 2 hours, and pellets were resuspended in 2D sample buffer (8M urea, 0.5% CHAPS, 0.2% DTT, 0.5% IPG buffer, 0.002% bromophenol blue). 2D electrophoresis was carried out according to manufacture's protocol (Amersham Life Science). 7 cm pH 4-7 strips were used. For SH-SY5Y membrane fraction, culture SH-SY5Y cells were rinsed with cold PBS and harvested with lysis buffer (50 mM Tris-HCl, pH 8.0, 1 mM ZnAc2, 250 mM sucrose). Lysate was passed through 25G needles for several times and spun at 1000 g for 5 min. […]
as §1

α-synuclein [5] = assay: α-synuclein accumulation in SH-SY5Y cells infected with α-synuclein-expressing adenovirus (Western blotting, normalized against actin)
Experimental: Western Blotting: Following transfer of SDS gels onto NC membrane, all membranes were blocked with 5% non-fat milk in TBST (50 mM Tris-HCl pH7.4, 150 mM NaCl, 0.1% Tween 20), and incubated with primary antibody overnight with 1% BSA in TBST, washed three times with TBST, and incubated with horseradish peroxidase-conjugated secondary antibody for 1 hour (Promega). Bound antibodies were detected using enhanced chemiluminascence (NEM).
Since α-synuclein neurotoxicity is dose-dependent, it follows that accumulation of α-synuclein, caused by UCH-L1 farnesylation, should promote its toxicity. […] These cells express high endogenous levels of UCH-L1. […] The unit of y-axis is 10^5 /ml. (F) Cell viability was assessed by the amount of metabolic activity using MTT assay. […] The effect of FTI-277 on the α-synuclein accumulation in the SH-SY5Y infected with α-synuclein-expressing adenovirus were analyzed by Western blotting (B) and the amount of α-synuclein (C) was quantified using NIH Image program and normalized against the amount of actin.

[6] = system: primary dopaminergic cultures; assay: α-synuclein toxicity in primary dopaminergic cultures

| SMILES | accumulation of α-synuclein (16 KDa, normalized against actin) (α-synuclein [1]; transfected COS-7 cells, 35 μM lactacystin, 24 hours) [%] | neuroprotective effect of FTI-277 on co-administration of the small-molecule UCH-L1 inhibitor ([2]; SH-SY5Y cells infected with α-synuclein adenovirus, data not shown) | α-synuclein toxicity / loss of cells ([2]; neuronally differentiated SH-SY5Y cells infected with α-synuclein adenovirus) | total amount of UCH-L1 (UCH-L1 [3]) | rate of turnover of UCH-L1 (UCH-L1 [3]; pulse-chase experiment not shown) | amount of cytosolic UCH-L1 (UCH-L1 [4]) | amount of membrane bound UCH-L1 (UCH-L1 [4]) | synuclein level (α-synuclein [1]; COS-7 cells) | amount of α-synuclein (α-synuclein [5]) | α-synuclein toxicity [6] |
| --- | --- | --- | --- | --- | --- | --- | --- | --- | --- | --- |
| CC(=O)N[C@@H](CSC(=O)[C@]1([C@@H](O)C(C)C)NC(=O)[C@H](C)[C@@H]1O)C(=O)O [lactacystin] | 100 |  |  |  |  |  |  |  |  |  |
| COC(=O)[C@H](CCSC)NC(=O)c1ccc(NC[C@@H](N)CS)cc1-c1ccccc1 [FTI-277] |  | eliminated | inhibits synuclein toxicity; also recorded: rescued α-synuclein toxicity; also recorded: significantly decreased loss of cells | reduced the total amount of UCH-L1 | increased its rate of turnover | without affecting | significant decrease; also recorded: decreased the amount of the membrane-associated species | lowers synuclein level | reducing the amount of α-synuclein accumulation; also recorded: reduced the amount of α-synuclein | inhibit α-synuclein toxicity |
